Laboratory results as given in patent publication US20030176444A1, “Cytokine production inhibitors” (priority 2000, published 2003).

What was measured:
[1] = tested on: TNF-alpha production by lipopolysaccharide-stimulated macrophages; assay: Effect on TNF-alpha production by lipopolysaccharide-stimulated macrophages (ELISA); type: cell-based, C3H/HeNCrj mice; conditions: five-hour culture
Experimental: Effect on TNF-Alpha Production by Lipopolysaccharide-Stimulated Macrophages Gatifloxacin was added to a culture medium at a concentration of 1, 10, or 100 μg/mL. One mL of 3% thioglycolate culture medium (Sigma) was intraperitoneally administered to C3H/HeNCrj mice (male, 11 weeks old) to induce macrophages. Six days after the administration, the animals were sacrificed, and then 10 mL of sterile RPMI 1640 (GIBCO BRL; 10% FBS-RPMI) containing 100 U/mL penicillin-100 μg/mL streptomycin (GIBCO BRL) and 10 v/v % fetal bovine serum (FBS) was intraperitoneally injected. After gentle massage of the abdomen, the 10% FBS-RPMI was collected from the abdomen cavity. After the collected 10% FBS-RPMI was centrifuged, the supernatant was removed and the peritoneal exudate cells including macrophages were harvested. The harvested peritoneal exudate cells were suspended in 10% FBS-RPMI at a concentration of […], and the suspension was plated in each well of a 24-well plate. After incubation for 1.5 hours, non-adherent cells were washed out with 10% FBS-RPMI, and macrophages adhering to the plate were obtained. […] Each content of TNF-alpha in the culture supernatant was determined by using an enzyme immunoassay (ELISA).

[2] = tested on: methicillin-resistant Staphylococcus aureus (MRSA) O-271 strain; assay: Rabbit ocular infection: viable bacterial number in corneal and conjunctival tissues; type: in vivo, Japanese White Rabbits; conditions: for Viable Bacterial Number (CFU/Cornea): 52 hours after inoculation, average
Experimental: (§1) The subject substances used for the test include […], 0.3 w/v % and 0.5 w/v % gatifloxacin eye drops. The control substances used include a 0.3 w/v % ofloxacin eye drop, a 0.5 w/v % levofloxacin eye drop and a physiological saline.
(§2) Japanese White Rabbits (male, 1.74 to 2.30 kg in weight) were generally anesthetized, and then 30 μL of 3.1×10^5 CFU/mL methicillin-resistant Staphylococcus aureus (MRSA) O-271 strain suspension was injected into a corneal stroma of each rabbit via a 27 gauge injection needle attached to a 100 μL microsyringe.
(§3) Five hours and 24 hours after the bacterial inoculation, 50 μL of each test substance was instillated into the rabbit eye using a micropipet. In the observation carried out 8, 16, 24, 32, and 48 hours after the bacterial inoculation, symptoms such as opacity of cornea, and redness and edema of conjunctiva were observed and scored based on the criteria as shown in Table 1. Each rabbit was sacrificed 52 hours after the bacterial inoculation, and then the eyeball was enucleated and cornea and conjunctiva were cut out. These tissue sections were morcellated in 2 mL of a physiological saline, diluted, and plated onto a Mueller-Hinton agar medium, and then the viable bacterial number was determined by counting the colonies formed after 48 hours.

[3] = tested on: methicillin-resistant Staphylococcus aureus (MRSA) O-271 strain ocular infection; assay: Rabbit ocular infection: scoring of corneal and conjunctival findings; type: in vivo, Japanese White Rabbits
Experimental: Antiinflammatory Effects on Rabbit Ocular Infection
as §1, §2, §3

Structure (SMILES)	concentration significantly suppressing the increase in TNF-alpha content ([1]; in combination with LPS 1 μg/mL, Williams' test)	inhibition of LPS-stimulated TNF-alpha production (TNF-alpha content of culture supernatant) ([1]; mouse peritoneal macrophages, LPS 1 μg/mL, gatifloxacin 1, 10 or 100 μg/mL)	Viable Bacterial Number (CFU/Cornea) ([2]; 0.1% eye drop)	viable bacterial number in the corneal tissue (in words) ([2]; 0.1, 0.3 and 0.5 w/v % eye drop groups)	Viable Bacterial Number (CFU/Cornea) ([2]; 0.3% eye drop)	Viable Bacterial Number (CFU/Cornea) ([2]; 0.5% eye drop)	viable bacterial number in the corneal tissue (in words) ([2]; 0.5 w/v % eye drop)	symptoms of the corneal infection (total cornea score) ([3]; 0.1, 0.3 and 0.5 w/v % eye drops, 50 μL at 5 and 24 h after inoculation, observed until 48 hours)	conjunctival findings (total conjunctiva score) ([3]; 0.3 w/v % and 0.5 w/v % eye drops, after 32 hours)	conjunctival findings (total conjunctiva score) ([3]; 0.5 w/v % eye drop, after 48 hours)	symptoms of the corneal infection (total cornea score) ([3]; 0.5 w/v % eye drop, until 48 hours after inoculation)	symptoms of the corneal infection (total cornea score), comparison with ofloxacin ([3]; eye drop concentration of 0.3 w/v % or more, vs 0.3 w/v % ofloxacin eye drop)
COc1c(N2CCNC(C)C2)c(F)cc2c(=O)c(C(=O)O)cn(C3CC3)c12 (racemic) [Gatifloxacin, (±)-1-cyclopropyl-6-fluoro-1,4-dihydro-8-methoxy-7-(3-methyl-1-piperazinyl-4-oxo-3-quinolinecarboxylic acid]	≥ 1 µg/mL	dose-dependently inhibited	1.3 × 10^4 CFU/Cornea	decreased dose-dependently	1.1 × 10^3 CFU/Cornea	3.9 × 10^2 CFU/Cornea	greatly decreased	dose-dependently inhibited	stronger inhibitory effect than the ofloxacin or the levofloxacin eye drop group	significantly stronger inhibitory effect than the 0.5 w/v % levofloxacin eye drop group	strong inhibitory effect	stronger inhibitory effect than the 0.3 w/v % ofloxacin eye drop group
C[C@H]1COc2c(N3CCN(C)CC3)c(F)cc3c(=O)c(C(=O)O)cn1c23 [Levofloxacin]	–	–	–	–	–	4.4 × 10^2 CFU/Cornea	–	–	–	–	–	–
CC1COc2c(N3CCN(C)CC3)c(F)cc3c(=O)c(C(=O)O)cn1c23 (centres unmarked) [Ofloxacin]	–	–	–	–	2.0 × 10^5 CFU/Cornea	–	–	–	–	–	–	–
